Test results as given in US9845349B2 (priority 2012, dated 2017).
Where “and” joins values, the source holds several entries; their conditions need not be identical. Identical values can stand only once. Like-named read-outs stand apart in the source and are kept apart here.

Target: LFG2:4B10 mAb

Substance	Kd	Response R	binding response	Kd (read-out: dissociation (KD))	improvement in binding response versus native epitope THQDEIYEQK-biotin
THQDEIYEQK-biotin	53.1 nM	0.7024	0.7 nm	53 nM	
THKDEIGGGSK-biotin	60 nM	2.3704			
TAKDEIGGGSK-biotin	31.5 nM and 20.9 nM	3.7854 and 3.7743			
TFKDEAGGGSK-biotin	16.4 nM	5.2909			
TFADEIGGGSK-biotin	25.2 nM and 23.9 nM	0.4475 and 0.4596			
TFKDAIGGGSK-biotin	24.5 nM	1.0132			
TFQDEIGGGSK-biotin	34.4 nM	1.3414			
TFKDEIGGGSK-biotin	9.97 nM	4.8387	4.83 nm	13.9 nM	~7 fold
TFKAEIGGGSK-biotin		0.2612 and 0.2492			
AFKDEIGGGSK-biotin	28.7 nM and 35.1 nM	0.556 and 0.5352			
